“Also recorded” adds a separate entry of the source.
How the values were obtained:
[1] = test system: ovariectomized mice; settings: dose 250 micrograms; cited from earlier work
[2] = target: T1, purified full-length human ERalpha (Homo sapiens, UniProt P03372); experiment: Competitive radiometric binding assay, relative binding affinity (RBA), ERalpha; settings: normalized to estradiol set at 100%; [3H]estradiol 10 nM tracer, 18-24 h at 0° C
T1 construct: purified full-length human ERalpha and ERbeta receptors purchased from Pan Vera (Madison, Wis.); purchased Pan Vera (Madison, Wis.)
T1 sequence (P03372 1-595): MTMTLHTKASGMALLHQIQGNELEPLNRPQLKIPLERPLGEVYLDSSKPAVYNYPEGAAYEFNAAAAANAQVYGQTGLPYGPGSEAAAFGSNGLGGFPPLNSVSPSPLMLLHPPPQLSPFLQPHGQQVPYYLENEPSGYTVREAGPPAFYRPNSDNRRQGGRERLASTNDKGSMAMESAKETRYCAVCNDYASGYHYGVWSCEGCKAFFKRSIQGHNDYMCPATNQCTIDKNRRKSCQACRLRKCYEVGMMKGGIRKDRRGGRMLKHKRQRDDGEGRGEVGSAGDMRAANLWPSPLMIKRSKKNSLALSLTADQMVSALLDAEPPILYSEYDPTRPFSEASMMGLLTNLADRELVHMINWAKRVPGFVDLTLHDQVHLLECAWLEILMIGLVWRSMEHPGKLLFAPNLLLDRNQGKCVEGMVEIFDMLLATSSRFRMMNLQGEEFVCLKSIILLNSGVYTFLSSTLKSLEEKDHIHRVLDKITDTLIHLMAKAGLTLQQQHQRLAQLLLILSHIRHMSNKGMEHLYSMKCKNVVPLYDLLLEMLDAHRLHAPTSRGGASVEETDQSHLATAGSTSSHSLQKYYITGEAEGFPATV
Experimental: Incubations were for 18-24 h at 0° C. Hydroxyapatite (BioRad, Hercules, Calif.) was used to absorb the receptor-ligand complexes and free ligand was washed away. […] The values given are the average±range or SD of two to three independent determinations.

[3] = target: T2, purified full-length human ERbeta (Homo sapiens, UniProt Q92731); experiment: Competitive radiometric binding assay, relative binding affinity (RBA), ERbeta; settings: for Relative binding affinity (RBA) ERβ: normalized to estradiol set at 100%, [3H]estradiol 10 nM tracer, 18-24 h at 0° C; for ERβ/ERα (ratio of RBAs): ratio of RBA ERβ to RBA ERα; for ER beta selectivity: binding selectivity ER beta over ER alpha
T2 construct: purified full-length human ERalpha and ERbeta receptors purchased from Pan Vera (Madison, Wis.); purchased Pan Vera (Madison, Wis.)
From the text: The relative binding affinities (RBAs) of potential ER ligands can be measured using purified full length human ERalpha and ERbeta receptors in a competitive radiometric binding assay, according to published procedures (Carlson, K. E.; Choi, I.; Gee, A,; Katzenellenbogen, B. S.; Katzenellenbogen, J. A. Altered ligand binding properties and enhanced stability of a constitutively active estrogen receptor: evidence that an open pocket conformation is required for ligand interaction. Biochemistry 1997, 36, 14897-14905; Katzenellenbogen, J. A.; Johnson, H. J., Jr.; Myers, H. N. Photoaffinity labels for estrogen binding proteins of rat uterus. Biochemistry 1973, 12, 4085-4092) as described in the Examples.
Relative binding affinities reported herein were determined by a competitive radiometric binding assay as previously described (Carlson, K. E.; Choi, I.; Gee, A.; Katzenellenbogen, B. S.; Katzenellenbogen, J. A. Altered ligand binding properties and enhanced stability of a constitutively active estrogen receptor: evidence that an open pocket conformation is required for ligand interaction. Biochemistry 1997, 36, 14897-14905; Katzenellenbogen, J. A.; Johnson, H. J., Jr.; Myers, H. N. Photoaffinity labels for estrogen binding proteins of rat uterus. Biochemistry 1973, 12, 4085-4092.) [3H]estradiol (10 nM) was used as tracer ([6,7-3H]estra-1,3,5,(10)triene-3,17-β-diol, 51-53 Ci/mmol, Amersham Biosciences, Piscataway, N.J.), and purified full-length human ERalpha and ERbeta receptors purchased from Pan Vera (Madison, Wis.). Incubations were for 18-24 h at 0° C. Hydroxyapatite (BioRad, Hercules, Calif.) was used to absorb the receptor-ligand complexes and free ligand was washed away. The binding affinities are expressed as relative binding affinity (RBA) values with the RBA of estradiol set to 100%. The values given are the average±range or SD of two to three independent determinations. […]

[4] = test system: U2-OS cells stably expressing either ERα or ERβ; experiment: Endogenous gene expression (cystatin D, GREB1 mRNA, quantitative PCR) in U2-OS cells stably expressing ERα or ERβ; settings: 24 hours, mRNA by quantitative PCR
Experimental: Expression levels of cystatin D (A and B) or of GREB1 (C and D) mRNA were determined by quantitative PCR methods.
More specifically real-time PCR was carried out on the indicated genes to evaluate mRNA levels of ER alpha or ER beta in U2-OS stably transfected cells. […] One microgram of total RNA from each sample was reverse transcribed in a total volume of 20 μl using 200 U reverse transcriptase, 50 pmol random hexamers, and 1 mM deoxynucleotide triphosphates (New England Biolabs, Beverly, Mass.). The resulting cDNA was then diluted to a total volume of 100 μl. Each real-time PCR consisted of 5 μl of diluted reverse transcription product, 1× SYBR Green PCR Master Mix (Applied Biosystems, Foster City, Calif.), and 50 nM of forward and reverse primers. Reactions were carried out in an ABI Prism 7700 Sequence Detection System (Applied Biosystems) for 40 cycles (95 C for 15 sec, 60 C for 1 min) after an initial 10-min incubation at 95 C. The FC in expression was calculated using the DDCt comparative threshold cycle method with the ribosomal protein 36B4 mRNA as an internal control. Gene expression is normalized to an endogenous reference gene (36B4) and the FC in gene expression is then determined relative to the vehicle-treated control.

[5] = target: T3, ERα (Homo sapiens, UniProt P03372); experiment: Antagonism of estrogen-induced 2x-pS2-ERE-Luc reporter expression in HEC-1 cells transfected with ERα; settings: ligand + E2 at 1 nM, 24 hours, luciferase, pS2 promoter
T3 sequence (P03372 1-595): T1 sequence (P03372 1-595)
Experimental: (§1) Values are expressed as % of E2 activity at 1 nM and are the mean of duplicate determinations.
(§2) The data presented was measured using a reporter gene under the control of the pS2 promoter. […] Human endometrial cancer (HEC-1) cells were maintained in minimum essential medium (MEM) plus phenol red supplemented with 5% calf serum and 5% fetal calf serum. […] The cells were incubated at 37° C. in a 5% CO2-containing incubator for 5 h. The medium was then replaced with fresh improved MEM supplemented with 5% CDCS plus the desired concentrations of ligand. Cells were harvested 24 h later.

[6] = target: ERβ (Homo sapiens, UniProt Q92731); experiment: Antagonism of estrogen-induced 2x-pS2-ERE-Luc reporter expression in HEC-1 cells transfected with ERβ; settings: ligand + E2 at 1 nM, 24 hours, luciferase, pS2 promoter
Chain of ERβ (Q92731 whole entry, species assumed): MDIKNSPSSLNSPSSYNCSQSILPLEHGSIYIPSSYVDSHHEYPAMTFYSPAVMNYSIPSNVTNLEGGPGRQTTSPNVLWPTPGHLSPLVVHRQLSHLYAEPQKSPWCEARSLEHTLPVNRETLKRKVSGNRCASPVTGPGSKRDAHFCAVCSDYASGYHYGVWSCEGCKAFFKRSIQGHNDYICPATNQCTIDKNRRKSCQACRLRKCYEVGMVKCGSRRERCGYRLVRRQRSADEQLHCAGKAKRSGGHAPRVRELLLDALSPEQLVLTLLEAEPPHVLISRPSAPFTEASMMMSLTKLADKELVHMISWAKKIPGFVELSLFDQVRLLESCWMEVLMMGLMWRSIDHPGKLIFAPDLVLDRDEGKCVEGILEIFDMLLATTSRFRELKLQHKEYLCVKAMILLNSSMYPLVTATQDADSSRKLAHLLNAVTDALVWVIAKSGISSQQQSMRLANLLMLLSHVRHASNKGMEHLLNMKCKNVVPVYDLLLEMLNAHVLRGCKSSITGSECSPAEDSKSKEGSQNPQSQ
Experimental: as §1, §2

T2 sequence (Q92731 whole entry): as the sequence (Q92731 whole entry, species assumed) above

Row | SMILES | Relative binding affinity (RBA) ERα [2] | Relative binding affinity (RBA) ERβ [3] | ERβ/ERα (ratio of RBAs) [3] | also measured
1 | COc1ccc(S(=O)(=O)N(c2ccccc2)c2ccccc2)cc1 [compound VIII] |  |  |  | percentage of animals which responded [1]: 60%
2 | CC(C)N(c1ccc(O)cc1)S(=O)(=O)c1ccc(O)cc1 [Compound 20g, N-Isopropyl-4-hydroxy-N-(4-hydroxy-phenyl)-benzenesulfonamide] | 0.012% | 0.22% | 18 | 
3 | CCCN(c1ccc(O)c(F)c1)S(=O)(=O)c1ccc(O)cc1 [Compound 24a, N-(3-Fluoro-4-hydroxy-phenyl)-4-hydroxy-N-propyl-benzenesulfonamide] | 0.011% | 0.254% | 23 | 
4 | O=S(=O)(c1ccc(O)cc1)N(CCC(F)(F)F)c1ccc(O)cc1 [Compound 20l, 4-Hydroxy-N-(4-hydroxy-phenyl)-N-(3,3,3-trifluoro-propyl)benzenesulfonamide] | 0.006% | 1.27% | 212 | Potency in endogenous gene regulation compared to the dose response of estradiol [4]: preferential potency through ERbeta; Regulation of endogenous genes (cystatin D and GREB1) [4]: preferential regulation through ERbeta; ER beta selectivity [3]: 212 fold; Antagonism on estrogen-induced gene expression through ERα ([5]; listed as FS-5): do not act as antagonists; also recorded: lack of antagonism; Antagonism on estrogen-induced gene expression through ERβ ([6]; listed as FS-5): do not act as antagonists; also recorded: lack of antagonism
5 | CCC(CC)N(c1ccc(O)cc1)S(=O)(=O)c1ccc(O)cc1 [Compound 20j, N-(1-Ethyl-propyl)-4-hydroxy-N-(4-hydroxy-phenyl)-benzenesulfonamide] | 0.018% | 0.11% | 6.1 | 
6 | CCCCCN(c1ccc(O)cc1)S(=O)(=O)c1ccc(O)cc1 [Compound 20f, 4-Hydroxy-N-(4-hydroxy-phenyl)-N-pentyl-benzenesulfonamide] | 0.047% | 0.60% | 13 | 
7 | CCCN(c1ccc(O)cc1)S(=O)(=O)c1ccc(O)cc1 [Compound 20c, 4-Hydroxy-N-(4-hydroxy-phenyl)-N-propyl-benzenesulfonamide] | 0.026% | 2.56% | 98 | Potency in endogenous gene regulation compared to the dose response of estradiol [4]: preferential potency through ERbeta; Regulation of endogenous genes (cystatin D and GREB1) [4]: preferential regulation through ERbeta; ER beta selectivity [3]: 98 fold; Antagonism on estrogen-induced gene expression through ERα ([5]; listed as FS-2): do not act as antagonists; also recorded: lack of antagonism; Antagonism on estrogen-induced gene expression through ERβ ([6]; listed as FS-2): do not act as antagonists; also recorded: lack of antagonism
8 | O=S(=O)(c1ccc(O)cc1)N(CCC(F)(F)F)c1ccc(O)c(Cl)c1 [Compound 28b, N-(3-Chloro-4-hydroxy-phenyl)-4-hydroxy-N-(3,3,3-trifluoro-propyl)-benzenesulfonamide] | 0.003% | 0.023% | 7.7 | 
9 | CN(c1ccc(O)cc1)S(=O)(=O)c1ccc(O)cc1 [Compound 20a, 4-Hydroxy-N-(4-hydroxy-phenyl)-N-methyl-benzenesulfonamide] | 0.009% | 0.058% | 6.4 | 
10 | CC(C)CN(c1ccc(O)cc1)S(=O)(=O)c1ccc(O)cc1 [Compound 20e, N-Isobutyl-4-hydroxy-N-(4-hydroxy-phenyl)-benzenesulfonamide] | 0.013% | 0.14% | 11 | 
11 | CCCN(c1ccc(O)c(Cl)c1)S(=O)(=O)c1ccc(O)cc1 [Compound 24b, N-(3-Chloro-4-hydroxy-phenyl)-4-hydroxy-N-propyl-benzenesulfonamide] | 0.005% | 0.038% | 7.6 | 
12 | CCN(c1ccc(O)cc1)S(=O)(=O)c1ccc(O)cc1 [Compound 20b, N-Ethyl-4-hydroxy-N-(4-hydroxy-phenyl)-benzenesulfonamide] | 0.007% | 0.28% | 40 | 
13 | CCC(C)N(c1ccc(O)cc1)S(=O)(=O)c1ccc(O)cc1 (racemic) [Compound 20h (Racemic), N-sec-Butyl-4-hydroxy-N-(4-hydroxy-phenyl)-benzenesulfonamide] | 0.006% | 0.97% | 162 | ER beta selectivity [3]: 162 fold
14 | O=S(=O)(c1ccc(O)cc1)N(CCC(F)(F)F)c1ccc(O)c(F)c1 [Compound 28a, N-(3-Fluoro-4-hydroxy-phenyl)-4-hydroxy-N-(3,3,3-trifluoro-propyl)-benzenesulfonamide] | 0.009% | 0.178% | 20 | 
15 | O=S(=O)(c1ccc(O)cc1)N(CC(F)(F)F)c1ccc(O)cc1 [Compound 20k, 4-Hydroxy-N-(4-hydroxy-phenyl)-N-(2,2,2-trifluoro-ethyl)-benzenesulfonamide] | 0.020% | 0.17% | 8.5 | 
16 | CCCCN(c1ccc(O)cc1)S(=O)(=O)c1ccc(O)cc1 [Compound 20d, N-Butyl-4-hydroxy-N-(4-hydroxy-phenyl)-benzenesulfonamide] | 0.023% | 1.15% | 50 | 
17 | CCCC(C)N(c1ccc(O)cc1)S(=O)(=O)c1ccc(O)cc1 (stereo not drawn) [Compound 20i, 4-Hydroxy-N-(4-hydroxy-phenyl)-N-(1-methyl-butyl)-benzenesulfonamide] | 0.013% | 1.3% | 100 | 
